Results as given in patent US8324241B2, “Triazolo compounds useful as DGAT1 inhibitors” (Bristol-Myers Squibb Company, priority 2008, dated 2012).

target: T1, recombinant human DGAT1 (Homo sapiens, UniProt O75907); assay: DGAT1 enzyme assay (SPA, membranes from Sf9 insect cells); format: biochemical; conditions: 300 ng recombinant human DGAT1 membrane (Sf9), 25 μM 2-monooleoylglycerol, 25 μM [3H]-stearoyl-CoA, pH 7.4, 30 min, 25° C.; read-out: DGAT1 Enzyme Assay IC50 (inhibition)
T1 construct: made in house; host or cells: Sf9 insect cells (baculovirus), used as a membrane preparation
T1 sequence (O75907 1-488): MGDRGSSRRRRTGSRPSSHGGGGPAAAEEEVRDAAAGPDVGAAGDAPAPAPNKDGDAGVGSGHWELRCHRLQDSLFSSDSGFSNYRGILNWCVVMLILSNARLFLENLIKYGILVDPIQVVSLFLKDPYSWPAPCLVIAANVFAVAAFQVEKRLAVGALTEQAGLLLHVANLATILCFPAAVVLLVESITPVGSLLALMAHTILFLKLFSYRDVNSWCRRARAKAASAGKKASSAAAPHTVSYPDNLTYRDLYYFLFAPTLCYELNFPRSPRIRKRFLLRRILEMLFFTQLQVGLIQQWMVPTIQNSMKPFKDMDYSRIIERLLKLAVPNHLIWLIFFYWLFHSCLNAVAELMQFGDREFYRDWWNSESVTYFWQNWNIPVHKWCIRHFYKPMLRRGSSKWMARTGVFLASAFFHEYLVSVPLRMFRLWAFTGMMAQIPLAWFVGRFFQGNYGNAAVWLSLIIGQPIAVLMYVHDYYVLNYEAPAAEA
Protocol: DGAT1 enzyme assays were conducted using membranes isolated from Sf9 insect cells expressing the recombinant human DGAT1 cDNA. The assays were conducted in 384-well plates with total volume of 25 μl at 25° C. In each assay, 300 ng of recombinant human DGAT1 membrane was incubated with 25 μM of 2-monooleoylglycerol and 25 μM of [^3H]-stearoyl-CoA in 100 mM potassium phosphate (pH 7.4) for 30 min with various concentrations of compounds delivered in DMSO. The assay was terminated by the addition of 30 μl of Stopping Solution [50 mM HEPES, 5 mg/mL Yttrium Oxide (YOX) Polylysine SPA beads, 3.33 mg/mL Fraction V BSA, 200 μM Mercuric chloride]. The signal was measured using LEADSEEKER^SM for 5 minutes. To calculate the degree of inhibition, the zero level of enzyme activity (blank) was defined by the above assay using Sf9 cell membrane uninfected with baculovirus and the 100% level of DGAT1 enzyme activity was defined by human DGAT1 assay with the vehicle DMSO. The IC50 values of inhibitors were determined by Excel-fit.

SMILES	IC50 [nM]
COC(=O)Nc1ccc(-c2nnc3c(C(=O)N4CCC[C@H]4C(=O)O)cccn23)cc1 [Example 22, (S)-1-(3-(4-(Methoxycarbonylamino)phenyl)-[1,2,4]triazolo[4,3-a]pyridine-8-carbonyl)pyrrolidine-2-carboxylic acid]	31000
CCC(=O)Nc1ccc(-c2nnc3c(C(=O)N[C@H](C(=O)O)C(C)C)cccn23)cc1 [Example 23, (S)-3-Methyl-2-(3-(4-propionamidophenyl)-[1,2,4]triazolo[4,3-a]pyridine-8-carboxamido)butanoic acid]	43000
CC(C)[C@H](NC(=O)c1cccn2c(-c3ccc(Nc4nc5ccc(Cl)cc5s4)cc3)nnc12)C(=O)O [Example 25, (S)-2-(3-(4-(6-Chlorobenzo[d]thiazol-2-ylamino)phenyl)-[1,2,4-]triazolo[4,3-a]pyridine-8-carboxamido)-3-methylbutanoic acid]	7
CC[C@H](NC(=O)c1cccn2c(-c3ccc(Nc4nc5ccc(Cl)cc5s4)cc3)nnc12)C(=O)O [Example 41]	5
C[C@@H](NC(=O)c1cccn2c(-c3ccc(Nc4nccs4)cc3)nnc12)C(=O)O [Example 47]	28000
CC(C)[C@H](NC(=O)c1nccn2c(-c3ccc(Nc4nc5ccc(Cl)cc5s4)cc3)nnc12)C(=O)O [Example 63, (S)-2-(3-(4-(6-Chlorobenzothiazol-2-ylamino)phenyl)-[1,2,4]triazolo[4,3-a]pyrazine-8-carboxamido)-3-methylbutanoic acid]	7

Continued, values first:

IC50 [nM]	SMILES
170	O=C(O)CNC(=O)c1cccn2c(-c3ccc(NC(=O)Nc4ccccc4OC(F)(F)F)cc3)nnc12 [Example 5]
150	O=C(O)CCNC(=O)c1cccn2c(-c3ccc(NC(=O)Nc4ccccc4OC(F)(F)F)cc3)nnc12 [Example 6]
150	O=C(Nc1ccc(-c2nnc3c(C(=O)N[C@@H](Cc4ccccc4)C(=O)O)cccn23)cc1)Nc1ccccc1OC(F)(F)F [Example 11]
180	O=C(Nc1ccc(-c2nnc3c(C(=O)N[C@H](C(=O)O)C4CCCCC4)cccn23)cc1)Nc1ccccc1OC(F)(F)F [Example 14]
3	CC[C@H](C)[C@H](NC(=O)c1cccn2c(-c3ccc(NC(=O)Nc4ccccc4OC(F)(F)F)cc3)nnc12)C(=O)O [Example 16]
23000	O=C(O)CNC(=O)c1cccn2c(-c3ccc(Nc4nccs4)cc3)nnc12 [Example 53]
